Measured values from patent US3930838A, “S-benzyl-N,N-disec-butylthiocarbamate and its use as a rice field herbicide and a rice growth stimulant” (priority 1970, dated 1976).

Assays:
[1] = tested on: rats; conditions: os, literature values; cited from earlier work
[2] = tested on: mice; conditions: os, literature values; cited from earlier work
[3] = tested on: rice; experiment: Outdoor comparison of rice stimulating action of M3432 with lower homologues and isomers (Example 11); type: in vivo; conditions: 21 days after sowing
Experimental: In the province of Pavia, a test was carried out with outdoor treatments in a loam soil, on rice plots having a 12 m^2 surface each.
Formulations of 20% M3432 in emulsifiable oil were compared with 20% formulations in emulsifiable oil of S-benzyl-N,N-diisopropyl thiocarbamate; S-benzyl-N,N-diisobutylthiocarbamate; and S-benzyl-N,N-din.butylthiocarbamate employing quantities of 4, 6 and 20 kg./ha.
For each treatment, the results were gathered on 20 plants 21 days after the sowing.

[4] = tested on: rice; conditions: Belgian Pat. No. 728,265; cited from earlier work

For `O=[N+]([O-])c1ccc(Oc2ccc(Cl)cc2Cl)cc1` [Nitrofen, 2,4-dichlorophenyl-4'-nitrophenylether], the “Acute toxicity LD50” value [1] is listed as 3000 mg/kg.

In the case of `CCC(=O)Nc1ccc(Cl)c(Cl)c1` [Propanil, N(3,4-dichlorophenyl)-propionamide], the “Acute toxicity LD50” value [1] is listed as 1384 mg/kg.

For `CCN(CC)C(=O)SCc1ccc(Cl)cc1` [Saturn, S(4-chlorobenzyl)N,N-diethylthiocarbamate], the “Acute toxicity LD50” value [2] is given as 560 mg/kg.

In the case of `Oc1c(Cl)c(Cl)c(Cl)c(Cl)c1Cl` [Pentachlorophenol], the “Acute toxicity LD50” value [1] is listed as 78 to 280 mg/kg.

`CC(C)N(C(=O)SCc1ccccc1)C(C)C` [S-benzyl-N,N-diisopropylthiocarbamate, S-benzyl-N,N-diisopropyl thiocarbamate] gave a Main roots ([3]; 4 kg./ha.) of 3.45 No, a Secondary roots ([3]; 4 kg./ha.) of 2.52 No and a Shoot ([3]; 4 kg./ha.) of 5.36 cm. For the same molecule, the Main roots ([3]; 6 kg./ha.) was 3.67 No, the Secondary roots ([3]; 6 kg./ha.) was 1.63 No and the Shoot ([3]; 6 kg./ha.) was 5.44 cm. It also gave a Main roots ([3]; 20 kg./ha.) of 2.79 No, a Secondary roots ([3]; 20 kg./ha.) of 1.21 No and a Shoot ([3]; 20 kg./ha.) of 4.03 cm.

For `COC(=O)Nc1ccc(Cl)c(Cl)c1` [Swep, methyl-N-(3,4-dichlorophenyl)carbamate], the “Acute toxicity LD50” value [1] is listed as 552 mg/kg.

In the case of `CCN(CC)C(=O)SCc1ccccc1` [S-benzyl-N,N-diethylthiocarbamate], the “Aggressiveness towards rice compared with ring-substituted monothiocarbamates” value [4] is given as “more aggressive towards the rice”.

For `CCCCN(CCCC)C(=O)SCc1ccccc1` [S-benzyl-N,N-din.butyl-thiocarbamate, S-benzyl-N,N-din.butylthiocarbamate], the Main roots ([3]; 4 kg./ha.) was 3.26 No, the Secondary roots ([3]; 4 kg./ha.) was 1.78 No and the Shoot ([3]; 4 kg./ha.) was 4.76 cm. For the same molecule, the Main roots ([3]; 6 kg./ha.) was 2.81 No, the Secondary roots ([3]; 6 kg./ha.) was 1.94 No and the Shoot ([3]; 6 kg./ha.) was 5.24 cm. The Main roots ([3]; 20 kg./ha.) was 1.94 No, the Secondary roots ([3]; 20 kg./ha.) was 2.05 No and the Shoot ([3]; 20 kg./ha.) was 2.34 cm.

With `CC(C)CN(CC(C)C)C(=O)SCc1ccccc1` [S-benzyl-N,N-diisobutylthiocarbamate] the Main roots ([3]; 4 kg./ha.) was 3.21 No, the Secondary roots ([3]; 4 kg./ha.) was 1.68 No and the Shoot ([3]; 4 kg./ha.) was 5.25 cm. The Main roots ([3]; 6 kg./ha.) was 2.76 No, the Secondary roots ([3]; 6 kg./ha.) was 1.57 No and the Shoot ([3]; 6 kg./ha.) was 4.21 cm. For the same molecule, the Main roots ([3]; 20 kg./ha.) was 2.59 No, the Secondary roots ([3]; 20 kg./ha.) was 1.52 No and the Shoot ([3]; 20 kg./ha.) was 3.96 cm.
